Data from patent US20240226255A9, “COMPOSITIONS AND METHODS FOR ACTIVATING NK CELLS” (The Regents of the University of California, priority 2021, published 2024).

Legend:
[1] = test system: vector-alone transfected HEp2 cells; assay: 51Cr release: NK cell lysis of Sulindac treated vector-alone transfected HEp2 cells; format: cell-based; conditions: Sulindac 50-200 μm for 3-4 hours, vs non-treated HEp2 cells
Experimental: . (FIG. 17A) 4×10^6 vector-alone transfected HEp2 cells were labeled with ^51Cr for 1 hour at 37° C. […] Treatment of NK cells with IL-2 was carried out for 8-12 hours before their addition to the target cells. […] After an overnight incubation the cells were washed to remove the drugs, and the tumor cells were then co-cultured in the presence of untreated and IL-2 (500 u/ml) treated NK cells. After 48 hours of incubation the supernatants were removed from the NK-HEp2 cell co-cultures and assayed for released GM-CSF.

[2] = test system: BM cells, splenocytes, spleen-purified NK cells, oral gingiva cells; assay: IFN-γ ELISA of IL-2 cultured tissue cells from mice given ZOL or NaCl, then molar extraction; format: in vivo; conditions: for ZOL-induced decrease in IFN-γ: oral tooth extraction site
Experimental: (§1) 7-week old female WT mice, and female Rag2^−/− mice (B6(Cg)-Rag2tm1.1Cgn/J null mutation in recombination-activating gene-2 resulting in the deficiency of B and T lymphocytes) were purchased from the Jackson Laboratory, Bar Harbor, ME. The UCLA Animal Research Committee reviewed and approved all experimental protocols involving animals (ARC 1997-136). Female WT mice and Rag2^−/− mice were injected with the single injection of 500 μg/kg ZOL or 0.9% NaCl vehicle solution via tail vein.
(§2) After 1-week of the ZOL and NaCl injection maxillary first molar was extracted as described previously. During the extraction procedure, mice were anesthetized via continuous inhalation of 2-4% isoflurane mixed with oxygen and placed on a custom-made surgical table in a supine position using the fixed positioner on the maxillary incisors. Immediately prior to tooth extraction, 5.0 mg/kg carprofen was subcutaneously injected, and mice received 5.0 mg/kg carprofen injection every 24 h for 48 h. Mice were sacrificed and various tissues were studied 4-weeks after the tooth extraction.
Single cell-suspension from each tissue of WT and Rag2^−/− female mice were activated with IL-2 (10,000 U/ml) for 5 days before the supernatants/culture media were harvested after to determine the levels of IFN-γ secretion. IFN-γ ELISAs were performed and standard curve was generated as described previously. A standard curve was generated by either two or three-fold dilution of recombinant IFN-γ provided by the manufacturer to analyze and obtain the IFN-γ concentration (Biolegend, San Diego, CA).
WT and RAG2 mice were administered with either 0.9% NaCl or ZOL (500 μg/kg) via tail vein followed by maxillary left first molar extraction as described in Materials and Methods section. Week 4 after the tooth extraction, animals were sacrificed, BM cells, splenocytes, splenocytes-purified NK cells and oral gingiva cells were cultured at (1×10^6 cells/ml) each treated with IL-2 (10000 U/ml) for 5 days, after which the supernatants were harvested and the levels of IFN-γ were determined using specific ELISA. Modulation of IFN-7 by ZOL in both WT and RAG2 mice models were determined, and fold change in comparison to NaCl controls was calculated for each tissue.

[3] = Osteonecrosis of the jaw (ONJ) after ZOL injection and molar extraction; format: in vivo; conditions: Rag2−/− mice injected with ZOL
Experimental: as §1, §2

st63 cells = conditions: Rag2−/− mice
Experimental: RAG2 mice were administered with either 0.9% NaCl or ZOL (500 μg/kg) via tail vein followed by maxillary left first molar extraction as described in Materials and Methods section. […] Week 4 after the tooth extraction, animals were sacrificed, BM cells (n=9), splenocytes (n=9), and NK cells purified from splenocytes (n=5) were cultured at (1×10^6 cells/ml) each treated with IL-2 (10000 U/ml) for 5 days, after which the cells were used as effector cells against tumor targets. Cytotoxicity assays were performed using standard 4-hour ^51Cr release assay against st63 cells, and the LU 30/10^6 cells were determined using inverse number of cells required to lyse 30% of st63 cells×100 (FIG. 16B).
Single cell-suspension from each tissue and spleen-purified NK cells from WT and Rag2^−/− mice female mice were activated with IL-2 (10,000 U/ml) for 5 days and were used as effector cells on day 5. […] After that, the supernatants were harvested from each sample and released radioactivity was counted using the gamma counter. The percentage (%) specific cytotoxicity was calculated as follows:
% Cytotoxicity=Experimental cpm−spontaneous cpm/Total cpm−spontaneous cpm • Lytic Units (LU) 30/10^6 was calculated by using the inverse of the number of effector cells needed to lyse 30% of tumor target ST63 cells×100.

YAC-1 cells = assay: 4 h 51Chromium release assay of mouse NK cells cultured with monocytes ± LPS against YAC-1; format: cell-based; conditions: IL-2-treated WT NK cells + monocytes from control WT littermates; LPS 20 ng/mL
Experimental: (§3) Afterward, NK cells were used as effector cells in a standard 4 h ^51Chromium release assay against YAC-1 cells. […] NK cells were treated as described in (FIG. 4A) and afterward the supernatant was removed from the co-cultures and the levels of IFN-γ secretion were determined using specific ELISAs. *P<0.05 was obtained for differences in secretion of IFN-γ between untreated and LPS-treated NK cells cultured with monocytes from control littermates or those from Cox-2flox/flox;LysMCre/+ mice (FIG. 4B). NK cells were prepared as described in (FIG. 4A) and used as effector cells against DCs derived from monocytes from either wild type or Cox-2flox/flox; LysMCre/+ mice in a standard 4 h ^51Chromium release assay. […] One of several representative experiments is shown in this figure.
(§4) Similar results to those seen with YAC-1 targets were also seen when control and Cox-2flox/flox;LysMCre/+ DCs were used as targets (FIG. 4C).

NK cells [4] = assay: IFN-γ ELISA of mouse NK cell-monocyte co-cultures ± LPS; format: cell-based; conditions: LPS 20 ng/mL
Experimental: as §3, §4

[5] = test system: DCs from wild type or Cox-2flox/flox;LysMCre/+ mice; assay: 4 h 51Chromium release assay of mouse NK cells ± LPS against monocyte-derived DCs; format: cell-based; conditions: IL-2-treated WT NK cells + WT or KO monocytes
Experimental: as §3, §4

OSCSCs = assay: 4 h 51Chromium release assay of human NK cells against OSCSCs; format: cell-based; conditions: LPS 20 ng/mL, 24-48 h
Experimental: (§5) Afterward, the cytotoxicity against OSCSCs was assessed using a standard 4 h ^51Chromium release assay. […] NK cells were prepared as described in FIG. 5A. […] One of several representative experiments is shown in this figure.
(§6) Human NK cells were purified from healthy donors and left untreated or treated with IL-2 (1000 U/mL) or the combination of IL-2 (1000 U/mL) and anti-CD16mAb (3 μg/mL) in the presence of sAJ2 (NK cell:sAJ2, 1:3), autologous monocytes (NK cell:monocytes, 1:1) or the combination of sAJ2 (NK cell:sAJ2, 1:3) and autologous monocytes (NK cell:monocytes, 1:1) for 24-48 h. Afterward, the cytotoxicity against OSCSCs cells was assessed using a standard 4 h ^51Chromium release assay. […] NK cells were prepared as described in FIG. 6A and after the treatment period, the supernatants were removed from the co-cultures and the levels of IFN-γ cytokine were measured with specific ELISA. *P<0.05 was obtained for the differences in cytotoxicity and IFN-γ secretion between human NK cells cultured in media and those treated with sAJ2, monocytes or the combination of sAJ2 and monocytes. One of several representative experiments is shown in this figure (FIG. 8B). […] After an overnight incubation, the supernatants were collected and the levels of IFN-γ, IL-15, IFN-α, and IL-12 were determined by ELISAs in a multiplexed format using Luminex technology (FIG. 8C). […]

NK cells [6] = assay: IFN-γ ELISA of human NK cell cultures; format: cell-based; conditions: LPS 20 ng/mL, 24-48 h
Experimental: as §5, §6

CC1=C(CC(=O)O)c2cc(F)ccc2/C1=C\c1ccc([S+](C)[O-])cc1 (stereo not shown) [Sulindac]
NK cell lysis of treated HEp2 cells [1]: increased lysis

O=P(O)(O)C(O)(Cn1ccnc1)P(=O)(O)O [ZOL, zolendronate]
ZOL-induced increase in IFN-γ ([2]; BM, Rag2−/− mice): 50-75%
IFN-γ secretion after ZOL injections ([2]; BM, Rag2−/− mice, vs NaCl): significantly increased
ZOL-induced increase in IFN-γ ([2]; BM, WT mice): 300-500%
Fold change in IFN-γ secretion (ZOL group/NaCl group) ([2]; Bone marrow, Rag2−/− (Rag KO) mice, ZOL 500 μg/kg): 1.5-1.75 fold
Fold change in IFN-γ secretion (ZOL group/NaCl group) ([2]; Bone marrow, WT mice, ZOL 500 μg/kg tail vein, week 4 after tooth extraction, cells + IL-2 5 days): 4-6 fold
Fold change in IFN-γ secretion (ZOL group/NaCl group) ([2]; Gingiva, Rag2−/− (Rag KO) mice, ZOL 500 μg/kg): 0.22-0.35 fold
Fold change in IFN-γ secretion (ZOL group/NaCl group) ([2]; Gingiva, WT mice, ZOL 500 μg/kg): 0.3-0.5 fold
ZOL-induced drop in IFN-γ ([2]; NK cells purified from splenocytes, Rag2−/− mice): 58-65%
ZOL-induced increase in IFN-γ ([2]; NK cells purified from splenocytes, WT mice): 20-90%
Fold change in IFN-γ secretion (ZOL group/NaCl group) ([2]; Spleen, Rag2−/− (Rag KO) mice, ZOL 500 μg/kg): 0.5-0.66 fold
Fold change in IFN-γ secretion (ZOL group/NaCl group) ([2]; Spleen, WT mice, ZOL 500 μg/kg): 2-3.4 fold
Fold change in IFN-γ secretion (ZOL group/NaCl group) ([2]; Spleen-purified NK cells, Rag2−/− (Rag KO) mice, ZOL 500 μg/kg): 0.35-0.42 fold
Fold change in IFN-γ secretion (ZOL group/NaCl group) ([2]; Spleen-purified NK cells, WT mice, ZOL 500 μg/kg): 1.2-1.9 fold
ZOL-induced decrease in IFN-γ ([2]; Rag2−/− mice): 65-78%
ZOL-induced decrease in IFN-γ ([2]; WT mice): 50-70%
secretion of IFN-γ after ZOL intake ([2]; spleen, spleen-purified NK cells and oral gingiva cells, Rag2−/− mice): blocked
ZOL-induced drop in IFN-γ ([2]; splenocytes, Rag2−/− mice): 34-50%
ZOL-induced increase in IFN-γ ([2]; splenocytes, WT mice): 100-240%
ONJ [3]: no ONJ was seen
NK cell-mediated cytotoxicity after ZOL injections (st63 cells; BM, vs NaCl): significantly increased
NK cell-mediated cytotoxicity with ZOL (st63 cells; spleen and spleen-purified NK cells): blocked

Lipopolysaccharide [LPS]
NK cells' ability to lyse YAC-1 cells (YAC-1 cells): complete shutdown
IFN-γ secretion (NK cells [4]; IL-2-treated WT NK cells + monocytes from Cox-2flox/flox;LysMCre/+ mice): increasing IFN-γ secretion significantly
amount of IFN-γ secreted by the NK cells (NK cells [4]; IL-2-treated WT NK cells + monocytes from control WT littermates): increased
NK cell cytotoxicity against wild type and Cox-2flox/flox;LysMCre/+ DCs [5]: decreased
NK cell-mediated cytotoxicity against OSCSCs (OSCSCs): loss
IFN-γ secretion (NK cells [6]): increasing
